# Reference: article PMC6054628
# Tests used:
# [1] = Head-to-tail native chemical ligation in two-module microfluidic flow: SEAon peptide amide rearranged to SEAE thioester (pH 1, TCEP, 60 min, 90 or 65 C), then MPAA (0.4 M)/Na2HPO4 (0.2 M) pH 7.3 cyclisation onto N-terminal Cys; conditions: 30-membered ring, water (phosphate buffer, MPAA, TCEP; decane segmented carrier; 6 M Gn.HCl for 4l-p), 0.6 mM, 37.0 °C, 0.067 h, 2 steps
# [2] = Head-to-tail native chemical ligation in two-module microfluidic flow: SEAon peptide amide rearranged to SEAE thioester (pH 1, TCEP, 60 min, 90 or 65 C), then MPAA (0.4 M)/Na2HPO4 (0.2 M) pH 7.3 cyclisation onto N-terminal Cys, 4 min; conditions: 30-membered ring, water (phosphate buffer, MPAA, TCEP; decane segmented carrier), 0.6 mM, 37.0 °C, 0.067 h, 2 steps, scale: %
# [3] = from CC[C@H](C)[C@H](NC(=O)[C@@H](N)CS)C(=O)N[C@@H](CC(C)C)C(=O)N[C@@H](CC(N)=O)C(=O)NCC(=O)N1CCC[C@H]1C(=O)N[C@H](C(=O)N[C@@H](Cc1c[nH]cn1)C(=O)NCC(=O)N[C@@H](CC(C)C)C(=O)SCCNCCS)C(C)C
# [4] = from CC[C@H](C)[C@H](NC(=O)[C@@H](N)CS)C(=O)N[C@@H](CC(C)C)C(=O)N[C@@H](CC(N)=O)C(=O)NCC(=O)N1CCC[C@H]1C(=O)N[C@H](C(=O)N[C@@H](Cc1c[nH]cn1)C(=O)NCC(=O)N[C@H](C(=O)SCCNCCS)C(C)C)C(C)C
Compound,"ring closure, yield over several steps [1, 3] [%]","ring closure, conversion by HPLC [2, 3]","ring closure, yield over several steps [1, 4] [%]","ring closure, conversion by HPLC [2, 4]"
CC[C@H](C)[C@@H]1NC(=O)[C@H](CS)NC(=O)[C@H](CC(C)C)NC(=O)CNC(=O)[C@H](Cc2c[nH]cn2)NC(=O)[C@H](C(C)C)NC(=O)[C@@H]2CCCN2C(=O)CNC(=O)[C@H](CC(N)=O)NC(=O)[C@H](CC(C)C)NC1=O [H-CILNGPVHGL-SEAon (via SEAE thioester)],80,85,,
CC[C@H](C)[C@@H]1NC(=O)[C@H](CS)NC(=O)[C@H](C(C)C)NC(=O)CNC(=O)[C@H](Cc2c[nH]cn2)NC(=O)[C@H](C(C)C)NC(=O)[C@@H]2CCCN2C(=O)CNC(=O)[C@H](CC(N)=O)NC(=O)[C@H](CC(C)C)NC1=O [H-CILNGPVHGV-SEAon (via SEAE thioester)],,,66,63
